How the values were obtained:
[1] = target: T1, Tyrosine-protein kinase Tec (Homo sapiens) (UniProt P42680); test: Selectivity interaction (KinomeScan (DiscoverX)) EUB0001619a TEC; settings: at 1 µM
T1 sequence (whole entry): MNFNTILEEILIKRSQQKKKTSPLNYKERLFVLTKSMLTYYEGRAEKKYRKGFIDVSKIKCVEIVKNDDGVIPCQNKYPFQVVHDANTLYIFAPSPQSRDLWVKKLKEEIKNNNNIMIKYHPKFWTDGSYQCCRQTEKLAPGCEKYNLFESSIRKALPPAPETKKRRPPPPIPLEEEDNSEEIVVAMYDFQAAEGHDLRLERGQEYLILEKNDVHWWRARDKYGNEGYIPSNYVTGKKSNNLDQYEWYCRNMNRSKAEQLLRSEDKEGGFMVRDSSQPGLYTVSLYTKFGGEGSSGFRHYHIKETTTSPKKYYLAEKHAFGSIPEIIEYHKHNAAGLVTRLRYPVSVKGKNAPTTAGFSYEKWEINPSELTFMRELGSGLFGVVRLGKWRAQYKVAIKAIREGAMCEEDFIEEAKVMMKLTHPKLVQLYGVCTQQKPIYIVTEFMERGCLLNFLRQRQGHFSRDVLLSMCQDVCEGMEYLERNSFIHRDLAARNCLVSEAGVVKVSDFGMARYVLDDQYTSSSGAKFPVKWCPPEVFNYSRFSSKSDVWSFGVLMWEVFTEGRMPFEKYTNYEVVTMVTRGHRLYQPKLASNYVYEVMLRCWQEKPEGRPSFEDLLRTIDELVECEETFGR

[2] = target: Serine/threonine-protein kinase B-raf (Homo sapiens) (UniProt P15056); test: Selectivity interaction (Kinase panel (DSF assay)) EUB0001558a BRAF
[3] = target: T2, MAP kinase-activated protein kinase 5 (Homo sapiens) (UniProt Q8IW41); test: Selectivity interaction (KinomeScan (DiscoverX)) EUB0000618a MAPKAPK5; settings: at 10 µM
T2 sequence (whole entry): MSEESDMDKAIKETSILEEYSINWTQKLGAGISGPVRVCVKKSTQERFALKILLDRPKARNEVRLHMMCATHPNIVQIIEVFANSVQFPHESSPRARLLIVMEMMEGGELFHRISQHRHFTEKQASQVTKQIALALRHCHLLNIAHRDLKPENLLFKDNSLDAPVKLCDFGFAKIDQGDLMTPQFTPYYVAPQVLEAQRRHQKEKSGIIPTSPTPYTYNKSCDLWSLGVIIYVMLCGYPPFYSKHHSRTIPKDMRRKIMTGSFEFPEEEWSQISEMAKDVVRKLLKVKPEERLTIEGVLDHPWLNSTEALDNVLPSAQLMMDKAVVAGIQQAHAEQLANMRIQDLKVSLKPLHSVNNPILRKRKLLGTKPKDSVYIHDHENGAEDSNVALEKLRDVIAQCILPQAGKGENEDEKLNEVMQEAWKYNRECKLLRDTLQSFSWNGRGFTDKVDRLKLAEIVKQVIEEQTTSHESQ

[4] = target: T3, Phosphatidylinositol 3-kinase C2 domain-containing subunit gamma (Homo sapiens) (UniProt O75747); test: Selectivity interaction (KinomeScan (DiscoverX)) EUB0000618a PIK3C2G; settings: at 10 µM
T3 sequence (whole entry): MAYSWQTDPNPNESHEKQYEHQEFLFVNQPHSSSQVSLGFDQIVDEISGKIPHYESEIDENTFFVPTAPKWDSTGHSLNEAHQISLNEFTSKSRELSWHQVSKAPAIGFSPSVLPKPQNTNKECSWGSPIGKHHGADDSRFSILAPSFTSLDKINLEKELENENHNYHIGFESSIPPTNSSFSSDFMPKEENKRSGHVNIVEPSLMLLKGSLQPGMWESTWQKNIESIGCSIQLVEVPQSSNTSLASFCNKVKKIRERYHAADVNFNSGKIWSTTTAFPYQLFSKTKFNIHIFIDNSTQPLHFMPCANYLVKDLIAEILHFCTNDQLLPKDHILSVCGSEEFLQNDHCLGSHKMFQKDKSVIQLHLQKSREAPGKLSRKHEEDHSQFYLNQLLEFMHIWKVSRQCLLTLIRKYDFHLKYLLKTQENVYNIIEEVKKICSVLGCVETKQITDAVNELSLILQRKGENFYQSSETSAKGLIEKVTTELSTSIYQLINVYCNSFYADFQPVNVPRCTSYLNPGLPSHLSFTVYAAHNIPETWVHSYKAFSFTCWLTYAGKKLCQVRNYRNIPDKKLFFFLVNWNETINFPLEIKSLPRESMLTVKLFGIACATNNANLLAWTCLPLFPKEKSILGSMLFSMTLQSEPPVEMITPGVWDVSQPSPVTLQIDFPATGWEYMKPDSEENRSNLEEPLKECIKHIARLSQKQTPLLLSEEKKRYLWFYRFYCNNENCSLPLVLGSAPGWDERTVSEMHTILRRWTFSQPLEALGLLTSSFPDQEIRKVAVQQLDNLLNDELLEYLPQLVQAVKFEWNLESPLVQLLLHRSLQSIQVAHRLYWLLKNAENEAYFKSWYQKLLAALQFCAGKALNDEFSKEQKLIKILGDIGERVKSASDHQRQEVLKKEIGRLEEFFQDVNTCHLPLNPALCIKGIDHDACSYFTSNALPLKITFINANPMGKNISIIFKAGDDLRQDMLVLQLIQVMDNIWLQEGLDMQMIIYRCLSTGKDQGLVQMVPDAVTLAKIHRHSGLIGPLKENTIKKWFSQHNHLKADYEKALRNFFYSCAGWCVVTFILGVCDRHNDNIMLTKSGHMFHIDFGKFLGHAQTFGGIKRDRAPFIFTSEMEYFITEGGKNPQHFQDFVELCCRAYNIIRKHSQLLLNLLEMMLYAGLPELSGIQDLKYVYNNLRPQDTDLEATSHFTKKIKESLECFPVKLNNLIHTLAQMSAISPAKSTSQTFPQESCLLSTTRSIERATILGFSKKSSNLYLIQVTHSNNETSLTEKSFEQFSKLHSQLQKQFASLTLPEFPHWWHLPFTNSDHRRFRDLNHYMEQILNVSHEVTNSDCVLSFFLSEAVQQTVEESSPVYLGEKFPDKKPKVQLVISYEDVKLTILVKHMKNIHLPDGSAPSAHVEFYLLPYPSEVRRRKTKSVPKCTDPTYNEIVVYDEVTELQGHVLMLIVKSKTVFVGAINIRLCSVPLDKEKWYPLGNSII

[5] = target: Fibroblast growth factor receptor 2 (Homo sapiens) (UniProt P21802); test: Selectivity interaction (KinomeScan (DiscoverX)) EUB0000618a FGFR2; settings: at 10 µM
[6] = target: T1, Tyrosine-protein kinase Tec (Homo sapiens); test: Selectivity interaction (KinomeScan (DiscoverX)) EUB0000655a TEC; settings: at 10 µM
[7] = test system: Epidermal growth factor receptor (Homo sapiens), P00533 [UNDEFINED MUTATION]; test: Selectivity interaction (Ambit KINOMEscan and KiNATiv profiling in Jurkat cells) EUB0000090b EGFR; assay type: cell-based; settings: at 1 µM
[8] = target: Fibroblast growth factor receptor 1 (Homo sapiens, UniProt P11362); test: Selectivity interaction (Ambit KINOMEscan and KiNATiv profiling in Jurkat cells) EUB0000090b FGFR1; assay type: cell-based; settings: at 1 µM
Sequence of Fibroblast growth factor receptor 1 (P11362 22-822 limits assumed): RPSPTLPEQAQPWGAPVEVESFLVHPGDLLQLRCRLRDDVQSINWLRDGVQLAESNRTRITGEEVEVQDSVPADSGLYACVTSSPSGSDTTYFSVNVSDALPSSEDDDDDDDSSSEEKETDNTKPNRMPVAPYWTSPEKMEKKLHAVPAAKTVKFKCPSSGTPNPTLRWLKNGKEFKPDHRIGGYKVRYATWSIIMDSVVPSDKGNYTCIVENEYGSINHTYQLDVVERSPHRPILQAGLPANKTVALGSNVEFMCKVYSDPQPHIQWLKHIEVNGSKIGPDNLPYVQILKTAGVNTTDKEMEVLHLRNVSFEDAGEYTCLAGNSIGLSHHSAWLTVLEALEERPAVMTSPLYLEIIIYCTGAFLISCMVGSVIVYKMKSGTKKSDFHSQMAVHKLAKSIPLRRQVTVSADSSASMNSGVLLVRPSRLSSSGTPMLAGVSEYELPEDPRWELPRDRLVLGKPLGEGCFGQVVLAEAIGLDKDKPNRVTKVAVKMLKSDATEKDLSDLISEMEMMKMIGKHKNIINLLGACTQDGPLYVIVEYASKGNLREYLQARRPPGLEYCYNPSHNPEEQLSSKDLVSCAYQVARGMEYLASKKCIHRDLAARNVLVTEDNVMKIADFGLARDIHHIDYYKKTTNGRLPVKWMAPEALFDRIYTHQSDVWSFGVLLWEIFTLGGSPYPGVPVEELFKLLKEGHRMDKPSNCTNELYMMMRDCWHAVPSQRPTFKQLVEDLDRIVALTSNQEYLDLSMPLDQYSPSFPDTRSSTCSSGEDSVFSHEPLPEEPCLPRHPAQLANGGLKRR

Sequence of Serine/threonine-protein kinase B-raf (Homo sapiens) (P15056 whole entry): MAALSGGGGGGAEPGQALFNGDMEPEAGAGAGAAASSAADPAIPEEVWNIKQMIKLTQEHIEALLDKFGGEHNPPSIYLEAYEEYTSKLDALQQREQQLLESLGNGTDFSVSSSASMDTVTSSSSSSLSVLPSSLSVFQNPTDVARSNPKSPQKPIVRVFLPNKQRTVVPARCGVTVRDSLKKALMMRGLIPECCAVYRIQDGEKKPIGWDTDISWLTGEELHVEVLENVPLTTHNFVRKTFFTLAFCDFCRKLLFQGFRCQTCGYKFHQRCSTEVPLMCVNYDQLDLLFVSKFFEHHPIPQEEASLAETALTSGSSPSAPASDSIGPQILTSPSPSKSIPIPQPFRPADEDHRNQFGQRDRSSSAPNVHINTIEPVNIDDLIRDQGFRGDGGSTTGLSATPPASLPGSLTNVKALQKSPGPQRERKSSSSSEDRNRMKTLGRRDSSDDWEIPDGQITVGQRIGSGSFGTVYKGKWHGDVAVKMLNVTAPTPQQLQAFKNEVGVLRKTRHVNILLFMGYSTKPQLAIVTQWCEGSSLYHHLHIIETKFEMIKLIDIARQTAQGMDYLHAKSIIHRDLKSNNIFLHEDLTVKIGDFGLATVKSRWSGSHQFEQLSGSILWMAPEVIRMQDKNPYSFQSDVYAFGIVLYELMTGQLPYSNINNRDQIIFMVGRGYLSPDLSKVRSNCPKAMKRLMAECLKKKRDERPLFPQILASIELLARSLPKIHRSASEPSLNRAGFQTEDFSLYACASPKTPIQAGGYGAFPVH
Sequence of Epidermal growth factor receptor (Homo sapiens), P00533 [UNDEFINED MUTATION] (P00533 whole entry, looked up, change not shown): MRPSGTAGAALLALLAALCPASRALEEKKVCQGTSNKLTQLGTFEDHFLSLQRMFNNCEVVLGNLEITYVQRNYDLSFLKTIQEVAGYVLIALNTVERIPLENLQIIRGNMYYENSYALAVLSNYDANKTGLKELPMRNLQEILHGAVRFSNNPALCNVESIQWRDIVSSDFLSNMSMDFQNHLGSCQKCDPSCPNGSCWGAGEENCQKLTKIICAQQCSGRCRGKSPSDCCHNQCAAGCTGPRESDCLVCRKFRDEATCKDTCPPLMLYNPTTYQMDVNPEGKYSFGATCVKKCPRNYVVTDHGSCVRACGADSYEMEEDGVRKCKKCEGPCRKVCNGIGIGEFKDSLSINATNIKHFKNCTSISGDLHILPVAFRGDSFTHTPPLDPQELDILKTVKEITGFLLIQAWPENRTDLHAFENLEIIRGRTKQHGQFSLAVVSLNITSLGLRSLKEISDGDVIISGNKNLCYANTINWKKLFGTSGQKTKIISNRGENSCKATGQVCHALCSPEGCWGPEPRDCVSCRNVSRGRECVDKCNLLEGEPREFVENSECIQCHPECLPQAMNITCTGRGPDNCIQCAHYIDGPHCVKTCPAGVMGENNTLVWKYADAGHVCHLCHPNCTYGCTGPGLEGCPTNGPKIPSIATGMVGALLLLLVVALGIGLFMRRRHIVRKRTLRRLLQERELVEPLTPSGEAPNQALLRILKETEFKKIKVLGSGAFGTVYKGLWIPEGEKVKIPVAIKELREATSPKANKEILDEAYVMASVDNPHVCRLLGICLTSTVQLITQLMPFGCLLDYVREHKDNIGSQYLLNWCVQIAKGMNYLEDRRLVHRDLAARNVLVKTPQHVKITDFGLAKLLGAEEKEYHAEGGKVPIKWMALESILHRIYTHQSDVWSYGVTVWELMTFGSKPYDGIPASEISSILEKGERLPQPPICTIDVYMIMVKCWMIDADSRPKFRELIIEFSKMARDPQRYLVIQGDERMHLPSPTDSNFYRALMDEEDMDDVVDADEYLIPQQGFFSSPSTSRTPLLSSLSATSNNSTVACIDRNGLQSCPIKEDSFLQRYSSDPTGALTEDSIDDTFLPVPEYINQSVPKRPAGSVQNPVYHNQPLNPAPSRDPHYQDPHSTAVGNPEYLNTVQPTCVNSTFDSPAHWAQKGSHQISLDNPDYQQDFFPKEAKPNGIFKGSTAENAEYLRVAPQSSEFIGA
Sequence of Fibroblast growth factor receptor 2 (Homo sapiens) (P21802 22-821 limits assumed): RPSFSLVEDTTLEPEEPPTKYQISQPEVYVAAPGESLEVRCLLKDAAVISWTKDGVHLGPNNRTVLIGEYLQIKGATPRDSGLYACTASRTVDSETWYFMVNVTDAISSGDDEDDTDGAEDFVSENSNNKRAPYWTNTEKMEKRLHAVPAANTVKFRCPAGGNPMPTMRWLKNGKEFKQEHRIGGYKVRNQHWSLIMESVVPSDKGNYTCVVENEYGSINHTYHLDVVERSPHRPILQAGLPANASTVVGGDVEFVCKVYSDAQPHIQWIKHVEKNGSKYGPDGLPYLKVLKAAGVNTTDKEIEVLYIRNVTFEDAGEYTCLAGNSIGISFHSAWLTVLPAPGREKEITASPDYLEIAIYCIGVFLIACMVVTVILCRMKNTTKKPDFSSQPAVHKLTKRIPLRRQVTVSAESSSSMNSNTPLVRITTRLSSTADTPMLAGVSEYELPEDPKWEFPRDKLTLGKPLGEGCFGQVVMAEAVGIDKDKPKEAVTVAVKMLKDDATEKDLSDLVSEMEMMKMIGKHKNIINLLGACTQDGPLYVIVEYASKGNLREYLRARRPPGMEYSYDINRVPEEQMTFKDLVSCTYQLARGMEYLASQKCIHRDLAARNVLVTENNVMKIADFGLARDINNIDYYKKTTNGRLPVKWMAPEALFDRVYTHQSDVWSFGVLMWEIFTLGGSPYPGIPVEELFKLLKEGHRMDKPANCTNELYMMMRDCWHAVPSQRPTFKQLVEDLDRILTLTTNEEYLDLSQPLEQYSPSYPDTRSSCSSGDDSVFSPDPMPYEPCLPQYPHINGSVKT

With `N#Cc1cccc(-c2c[nH]c3ncnc(N4CCOCC4)c23)c1` the % of control [1] was 100%.

`CC(C)(O)[C@H](F)CN1Cc2cc(NC(=O)c3cnn4cccnc34)c(N3CCOCC3)cc2C1=O` showed a dTM [2] of 0 K.

In the case of `O[C@H]1CC[C@H](Nc2ncc3nc(Nc4c(F)cc(F)cc4F)n([C@H]4CCOC4)c3n2)CC1`, the % of control [3] is reported as 100%, the % of control [4] is reported as 93% and the % of control [5] is reported as 83%.

Work on `CN(C)CCOc1ccc(-c2nc(-c3ccncc3)c(-c3ccc4c(c3)CC/C4=N\O)[nH]2)cc1` yielded a % of control [6] of 91%.

With `CN(C)C/C=C/C(=O)Nc1ccc(C(=O)N2CCCC(Nc3ncc(Cl)c(-c4c[nH]c5ccccc45)n3)C2)cc1` (stereo not drawn) the % of control [7] was 80% and the % of control [8] was 82%.

Source: ChEMBL document CHEMBL5465560, “Selectivity Literature for EUbOPEN Chemogenomic Library” (2024)
